In BindingDB's records for patent US8476306 (The Medicines, 2013):

molecular target: Urokinase-type plasminogen activator (Homo sapiens, UniProt P00749); assay: Enzyme Assay; conditions: 24 °C
Excerpt: Inhibition constant of the compound against Plasminogen activator urokinase

| Ki | Compound |
| --- | --- |
| 8.9 nM | N=C(N)c1ccc(CNC(=O)[C@H](CCCN=C(N)N)NC(=O)[C@@H](CO)NS(=O)(=O)Cc2ccccc2)cc1 [US8476306, 8.2] |
| 100 nM | N=C(N)c1ccc(CNC(=O)CNC(=O)[C@@H](CO)NS(=O)(=O)Cc2ccncc2)cc1 [US8476306, 6.24] |
| 24 nM | N=C(N)c1ccc(CNC(=O)[C@H](CCCCN)NC(=O)[C@@H](CO)NS(=O)(=O)Cc2ccccc2)cc1 [US8476306, 8.1] |
| 120 nM | N=C(N)c1ccc(CNC(=O)CNC(=O)[C@@H](CO)NS(=O)(=O)Cc2ccc(CN)cc2)cc1 [US8476306, 6.11] |
